Test results published in patent EP0369733A2, “Fluorescent indicator dyes for alkali metal cations, their preparation and use” (THE REGENTS OF THE UNIVERSITY OF CALIFORNIA, priority 1988, dated 1990).

Assays:
[1] = Cation titration followed by absorbance or fluorescence excitation spectra: Mg²⁺ binding; settings: 0.1 M tetramethylammonium chloride, 1-5 mM tris(hydroxymethyl)aminomethane, high pH, read-out: Dissociation constants (Kd) in mM for Mg²⁺
Procedure: (§1) • Footnote a: For molecular structures, see Fig. 1. • Footnote b: Except where otherwise noted, these dissociation constants were measured with the chelator dissolved in 0.1 M tetramethylammonium chloride, at a pH held high enough with 1-5 mM tris(hydroxymethyl)aminomethane for protonation to be insignificant. The absorbance spectrum, or the fluorescence excitation spectrum for those compounds (2GG, 2NN, 2OO, 2PP, 3NN) with acronyms was measured as a function of the concentration of cation added as a solid or concentrated aqueous solution of the halide salt. No correction has been made for the changing ionic strength of the solution, which started from 0.1 M and increased, but the absorbances and fluorescence amplitudes were applied for dilution of the dye and any slight quenching due to high concentrations of Cl⁻. • Footnote c: These protonation constants were determined in 0.1 M tetramethylammonium chloride, 10 mM tris(hydroxymethyl)aminomethane, titrated with 5 M H₃PO₄ to successively lower pH values measured with a Radiometer PHM84 meter. […] The first number is the wavelength in nanometers, followed in parentheses by 10⁻³ x the corresponding extinction coefficient, M⁻¹cm⁻¹. […] Emission maxima are not corrected for the spectral sensitivity of the emission detection. Quantum efficiencies were measured (13) by comparing the integral of the corrected emission spectrum with the corresponding integral for a solution of quinine bisulfate in 1 N H₂SO₄ of matched absorbance at the excitation wavelength.
(§2) Affinities for other cations were usually measured by titrating aqueous solutions of the indicator with metal chlorides added either as solid or from concentrated stock solutions, taking care to minimize dilution and correct for it. A convenient way to mass-produce premeasured micromole to millimole aliquots of solid NaCl or KCl was to pipet saline solutions into polypropylene micro test tubes and evaporate the water in an oven. The standard ionic background was again 100 mM tetramethylammonium chloride, usually with a few mM of tris(hydroxymethyl)-aminomethane base to hold the pH high enough (pH 8-9) to insure that protonation was negligible. This convenient titration procedure had the slight disadvantage that the ionic strength was not constant, especially when large quantities of a salt had to be added due to weak affinities. […] When constant ionic strength was desired, the chelator was made up at identical concentrations in matched solutions of NaCl, KCl, or tetramethylammonium chloride, then these stocks were mixed in the desired proportions.

[2] = Fluorescence excitation/emission spectra and quantum efficiency; type: physicochemical; settings: for Quantum efficiency -Na⁺ / Quantum efficiency +Na⁺: relative to quinine bisulfate in 1 N H₂SO₄ (0.55); for Quantum efficiency +Na⁺: saturating Na⁺
[3] = Cation titration followed by absorbance or fluorescence excitation spectra: K⁺ binding; settings: inert background cations such as tetramethylammonium or Cs⁺, high pH
Procedure: as §1
Affinities for other cations were usually measured by titrating aqueous solutions of the indicator with metal chlorides added either as solid or from concentrated stock solutions, taking care to minimize dilution and correct for it. […] This convenient titration procedure had the slight disadvantage that the ionic strength was not constant, especially when large quantities of a salt had to be added due to weak affinities. […]

[4] = Cation titration followed by absorbance or fluorescence excitation spectra: Li⁺ binding; settings: for Kd: 0.1 M tetramethylammonium chloride, 1-5 mM tris(hydroxymethyl)aminomethane, high pH, read-out: Dissociation constants (Kd) in mM for Li⁺
Procedure: as §1
as §2, with “proportions. All measurements were made at room temperature (22°, ±2° C).” for “proportions.”

[5] = Effective Kd for Na⁺ against a K⁺ background; type: binding
Procedure: For comparison, Lehn's cryptand [2.2.1] (see ref. 5) is shown in the upper left hand corner. Below cryptand [2.2.1] are three generic types of crown ethers that have been prepared for use in the making some of the compounds of the present invention. To the right of the vertical dividing line are examples of some of the aromatic and heterocyclic substituents that can be attached to the nitrogens of the crown ethers. […] The lowest curve ([Na⁺] = 0) was obtained with 5 µM SBFI in 130 mM KCl, 10 mM MOPS, KOH to pH 7.05, approximately 135 mM total K⁺. The highest curve ([Na⁺] = 135 mM) was analogously recorded from 5 µM SBFI in 130 mM NaCl, 10 mM MOPS, NaOH to pH 7.05. […]
• Footnote a: For molecular structures, see Fig. 1. • Footnote b: Except where otherwise noted, these dissociation constants were measured with the chelator dissolved in 0.1 M tetramethylammonium chloride, at a pH held high enough with 1-5 mM tris(hydroxymethyl)aminomethane for protonation to be insignificant. The absorbance spectrum, or the fluorescence excitation spectrum for those compounds (2GG, 2NN, 2OO, 2PP, 3NN) with acronyms was measured as a function of the concentration of cation added as a solid or concentrated aqueous solution of the halide salt. […]

With `COc1cc2cc(-c3ccc(C(=O)O)cc3C(=O)O)oc2cc1N1CCOCCOCCN(c2cc3oc(-c4ccc(C(=O)O)cc4C(=O)O)cc3cc2OC)CCOCC1` [Compound 2PP, N,N-bis-(2-(2,4-dicarboxyphenyl)-5-methoxybenzofuran-6-yl)-diaza[15]-crown-5] the Kd ([1]; listed as 2PP (SBFI)) was 60 mM, the Kd ([1]; listed as SBFI) was ~60 mM and the “Emission maxima -Na⁺” value ([2]; 100 mM tetramethylammonium chloride, no Na⁺, not corrected for detector sensitivity) was 551 nanometers. For the same molecule, the “emission peak with Ca²⁺” value ([2]; Ca²⁺ bound, large hypsochromic shift) was 432 nm, the “excitation peak wavelength without Na⁺” value ([2]; Na⁺-K⁺ mixtures, sum 135 mM, K⁺ only) was 344 nm and the “excitation peak wavelength with Na⁺” value ([2]; Na⁺-K⁺ mixtures, sum 135 mM, Na⁺ bound) was 336 nm. The “Quantum efficiency -Na⁺” value ([2]; no Na⁺, listed as 2PP (SBFI)) was “.045”, the “Quantum efficiency -Na⁺” value ([2]; no Na⁺, listed as SBFI) was 0.045 and the “Emission maxima +Na⁺” value ([2]; saturating NaCl, not corrected for detector sensitivity) was 525 nanometers. The “Quantum efficiency +Na⁺” value ([2]; listed as 2PP (SBFI)) was “.063”, the “Quantum efficiency +Na⁺” value ([2]; listed as SBFI) was 0.08 and the “K⁺ affinity” value [3] was 7 M⁻¹. The “Li⁺ affinity” value [4] was 15 M⁻¹, the Kd ([4]; listed as 2PP (SBFI)) was 68 mM and the Kd ([4]; listed as SBFI) was 67 mM. The Kd ([5]; Na⁺-K⁺ mixtures, sum held constant at 135 mM, 1 mM Mg²⁺ present, pH 7.05, read-out: apparent dissociation constant for Na⁺) was 17 to 19 mM and the Kd ([5]; [Na⁺]+[K⁺] = 280 mM (cytoplasm of marine organisms), read-out: effective Kd for SBFI-Na⁺) was 28 mM.
